ChEMBL document CHEMBL1649226, “Species identification and antifungal susceptibility patterns of species belonging to Aspergillus section Nigri” (2009)
In brackets after ≈: the same amount, converted by molar mass.

Key:
Type in all cases: functional
Aspergillus foetidus [1] = test: Antifungal activity against Aspergillus foetidus isolate CM-5264 obtained from respiratory tract infection of patient after 48 hrs by EUCAST broth dilution method; conditions: isolate CM-5264, 48 h
Aspergillus tubingensis [2] = test: Antifungal activity against Aspergillus tubingensis isolate CM-4899 obtained from respiratory tract infection of patient after 48 hrs by EUCAST broth dilution method; conditions: isolate CM-4899, 48 h
Aspergillus tubingensis [3] = test: Antifungal activity against Aspergillus tubingensis isolate CM-4296 obtained from respiratory tract infection of patient after 48 hrs by EUCAST broth dilution method; conditions: isolate CM-4296, 48 h
Aspergillus tubingensis [4] = test: Antifungal activity against Aspergillus tubingensis isolate CM-4897 obtained from blood culture after 48 hrs by EUCAST broth dilution method; conditions: isolate CM-4897, 48 h
Aspergillus niger [5] = test: Antifungal activity against Aspergillus niger isolate CM-3236 obtained from respiratory tract infection of patient after 48 hrs by EUCAST broth dilution method; conditions: isolate CM-3236, 48 h
Aspergillus niger [6] = test: Antifungal activity against Aspergillus niger isolate CM-5095 obtained from respiratory tract infection of patient after 48 hrs by EUCAST broth dilution method; conditions: isolate CM-5095, 48 h
Aspergillus tubingensis [7] = test: Antifungal activity against Aspergillus tubingensis isolate CM-5094 obtained from respiratory tract infection of patient after 48 hrs by EUCAST broth dilution method; conditions: isolate CM-5094, 48 h
Aspergillus tubingensis [8] = test: Antifungal activity against Aspergillus tubingensis isolate CM-4264 obtained from blood culture after 48 hrs by EUCAST broth dilution method; conditions: isolate CM-4264, 48 h
Aspergillus tubingensis [9] = test: Antifungal activity against Aspergillus tubingensis isolate CM-4000 after 48 hrs by EUCAST broth dilution method; conditions: isolate CM-4000, 48 h
Aspergillus tubingensis [10] = test: Antifungal activity against Aspergillus tubingensis isolate CM-3507 obtained from respiratory tract infection of patient after 48 hrs by EUCAST broth dilution method; conditions: isolate CM-3507, 48 h
Aspergillus niger [11] = test: Antifungal activity against Aspergillus niger isolate CM-3641 obtained from respiratory tract infection of patient after 48 hrs by EUCAST broth dilution method; conditions: isolate CM-3641, 48 h
Aspergillus tubingensis [12] = test: Antifungal activity against Aspergillus tubingensis isolate CM-4003 after 48 hrs by EUCAST broth dilution method; conditions: isolate CM-4003, 48 h
Aspergillus tubingensis [13] = test: Antifungal activity against Aspergillus tubingensis isolate CM-3177 obtained from respiratory tract infection of patient after 48 hrs by EUCAST broth dilution method; conditions: isolate CM-3177, 48 h
Aspergillus niger [14] = test: Antifungal activity against Aspergillus niger isolate CM-4004 obtained from after 48 hrs by EUCAST broth dilution method; conditions: isolate CM-4004, 48 h
Aspergillus niger [15] = test: Antifungal activity against Aspergillus niger isolate CM-3586 obtained from catheter of patient after 48 hrs by EUCAST broth dilution method; conditions: isolate CM-3586, 48 h
Aspergillus tubingensis [16] = test: Antifungal activity against Aspergillus tubingensis isolate CM-3125 obtained from respiratory tract infection of patient after 48 hrs by EUCAST broth dilution method; conditions: isolate CM-3125, 48 h
Aspergillus niger [17] = test: Antifungal activity against Aspergillus niger isolate CM-3257 obtained from respiratory tract infection of patient after 48 hrs by EUCAST broth dilution method; conditions: isolate CM-3257, 48 h
Aspergillus niger [18] = test: Antifungal activity against Aspergillus niger isolate CM-3636 obtained from respiratory tract infection of patient after 48 hrs by EUCAST broth dilution method; conditions: isolate CM-3636, 48 h
Aspergillus tubingensis [19] = test: Antifungal activity against Aspergillus tubingensis isolate CM-4005 after 48 hrs by EUCAST broth dilution method; conditions: isolate CM-4005, 48 h
Aspergillus foetidus [20] = test: Antifungal activity against Aspergillus foetidus isolate CM-4995 obtained from prosthesis after 48 hrs by EUCAST broth dilution method; conditions: isolate CM-4995, 48 h
Aspergillus tubingensis [21] = test: Antifungal activity against Aspergillus tubingensis isolate CM-3123 obtained from respiratory tract infection of patient after 48 hrs by EUCAST broth dilution method; conditions: isolate CM-3123, 48 h
Aspergillus foetidus [22] = test: Antifungal activity against Aspergillus foetidus isolate CM-4002 after 48 hrs by EUCAST broth dilution method; conditions: isolate CM-4002, 48 h
Aspergillus niger [23] = test: Antifungal activity against Aspergillus niger isolate CM-3672 obtained from cutaneous layer of patient after 48 hrs by EUCAST broth dilution method; conditions: isolate CM-3672, 48 h
Aspergillus tubingensis [24] = test: Antifungal activity against Aspergillus tubingensis isolate CM-4688 obtained from respiratory tract infection of patient after 48 hrs by EUCAST broth dilution method; conditions: isolate CM-4688, 48 h
Aspergillus tubingensis [25] = test: Antifungal activity against Aspergillus tubingensis isolate CM-4001 after 48 hrs by EUCAST broth dilution method; conditions: isolate CM-4001, 48 h
Aspergillus tubingensis [26] = test: Antifungal activity against Aspergillus tubingensis isolate CM-3810 obtained from respiratory tract infection of patient after 48 hrs by EUCAST broth dilution method; conditions: isolate CM-3810, 48 h
Aspergillus niger [27] = test: Antifungal activity against Aspergillus niger isolate CM-4262 after 48 hrs by EUCAST broth dilution method Ophthalmic; conditions: isolate CM-4262, 48 h
Aspergillus niger [28] = test: Antifungal activity against Aspergillus niger isolate CM-3551 obtained from respiratory tract infection of patient after 48 hrs by EUCAST broth dilution method; conditions: isolate CM-3551, 48 h
Aspergillus tubingensis [29] = test: Antifungal activity against Aspergillus tubingensis isolate CM-4352 obtained from respiratory tract infection of patient after 48 hrs by EUCAST broth dilution method; conditions: isolate CM-4352, 48 h
Aspergillus tubingensis [30] = test: Antifungal activity against Aspergillus tubingensis isolate CM-3585 after 48 hrs by EUCAST broth dilution method; conditions: isolate CM-3585, 48 h
Aspergillus niger [31] = test: Antifungal activity against Aspergillus niger isolate CM-3506 obtained from respiratory tract infection of patient after 48 hrs by EUCAST broth dilution method; conditions: isolate CM-3506, 48 h
Aspergillus tubingensis [32] = test: Antifungal activity against Aspergillus tubingensis isolate CM-3654 obtained from blood culture after 48 hrs by EUCAST broth dilution method; conditions: isolate CM-3654, 48 h
Aspergillus niger [33] = test: Antifungal activity against Aspergillus niger isolate CM-4316 obtained from respiratory tract infection of patient after 48 hrs by EUCAST broth dilution method; conditions: isolate CM-4316, 48 h
Aspergillus niger [34] = test: Antifungal activity against Aspergillus niger isolate CM-4213 obtained from respiratory tract infection of patient after 48 hrs by EUCAST broth dilution method; conditions: isolate CM-4213, 48 h

Structure (SMILES)	MIC (Aspergillus foetidus [1]) [µg/mL]	MIC (Aspergillus tubingensis [2]) [µg/mL]	MIC (Aspergillus tubingensis [3]) [µg/mL]	MIC (Aspergillus tubingensis [4]) [µg/mL]	MIC (Aspergillus niger [5]) [µg/mL]	MIC (Aspergillus niger [6]) [µg/mL]	MIC (Aspergillus tubingensis [7]) [µg/mL]	MIC (Aspergillus tubingensis [8]) [µg/mL]	MIC (Aspergillus tubingensis [9]) [µg/mL]	MIC (Aspergillus tubingensis [10]) [µg/mL]	MIC (Aspergillus niger [11]) [µg/mL]	MIC (Aspergillus tubingensis [12]) [µg/mL]	MIC (Aspergillus tubingensis [13]) [µg/mL]	MIC (Aspergillus niger [14]) [µg/mL]	MIC (Aspergillus niger [15]) [µg/mL]	MIC (Aspergillus tubingensis [16]) [µg/mL]	MIC (Aspergillus niger [17]) [µg/mL]	MIC (Aspergillus niger [18]) [µg/mL]	MIC (Aspergillus tubingensis [19]) [µg/mL]	MIC (Aspergillus foetidus [20]) [µg/mL]	other results
CC[C@@H]([C@H](C)O)n1ncn(-c2ccc(N3CCN(c4ccc(OC[C@@H]5CO[C@@](Cn6cncn6)(c6ccc(F)cc6F)C5)cc4)CC3)cc2)c1=O [POSACONAZOLE]	0.5 (≈ 0.713 µM)	0.25 (≈ 0.357 µM)	0.19 (≈ 0.271 µM)	0.25 (≈ 0.357 µM)	0.12 (≈ 0.171 µM)	0.12 (≈ 0.171 µM)	0.06 (≈ 0.0856 µM)	0.12 (≈ 0.171 µM)	0.25 (≈ 0.357 µM)	0.15 (≈ 0.214 µM)	0.125 (≈ 0.178 µM)	0.25 (≈ 0.357 µM)	0.25 (≈ 0.357 µM)	0.25 (≈ 0.357 µM)	0.12 (≈ 0.171 µM)	0.12 (≈ 0.171 µM)	0.25 (≈ 0.357 µM)	0.19 (≈ 0.271 µM)	0.5 (≈ 0.713 µM)	0.16 (≈ 0.228 µM)	MIC (Aspergillus tubingensis [21]): 0.25 µg/mL (≈ 0.357 µM); MIC (Aspergillus foetidus [22]): 0.12 µg/mL (≈ 0.171 µM); MIC (Aspergillus niger [23]): 0.19 µg/mL (≈ 0.271 µM); MIC (Aspergillus tubingensis [24]): 0.25 µg/mL (≈ 0.357 µM); MIC (Aspergillus tubingensis [25]): 0.25 µg/mL (≈ 0.357 µM); MIC (Aspergillus tubingensis [26]): 0.12 µg/mL (≈ 0.171 µM); MIC (Aspergillus niger [27]): 0.25 µg/mL (≈ 0.357 µM); MIC (Aspergillus niger [28]): 0.12 µg/mL (≈ 0.171 µM); MIC (Aspergillus tubingensis [29]): 0.25 µg/mL (≈ 0.357 µM); MIC (Aspergillus tubingensis [30]): 0.12 µg/mL (≈ 0.171 µM); MIC (Aspergillus niger [31]): 0.12 µg/mL (≈ 0.171 µM); MIC (Aspergillus tubingensis [32]): 0.25 µg/mL (≈ 0.357 µM); MIC (Aspergillus niger [33]): 0.125 µg/mL (≈ 0.178 µM); MIC (Aspergillus niger [34]): 0.03 µg/mL (≈ 0.0428 µM)
C[C@@H](c1nc(-c2ccc(C#N)cc2)cs1)[C@](O)(Cn1cncn1)c1ccc(F)cc1F [RAVUCONAZOLE]	8 (≈ 18.3 µM)	2.67 (≈ 6.1 µM)	1.5 (≈ 3.43 µM)	2 (≈ 4.57 µM)	1 (≈ 2.29 µM)	1.5 (≈ 3.43 µM)	2 (≈ 4.57 µM)	1.5 (≈ 3.43 µM)	2 (≈ 4.57 µM)	1.5 (≈ 3.43 µM)	1 (≈ 2.29 µM)	4 (≈ 9.14 µM)	3.33 (≈ 7.61 µM)	1.67 (≈ 3.82 µM)	2 (≈ 4.57 µM)	1.67 (≈ 3.82 µM)	1 (≈ 2.29 µM)	1 (≈ 2.29 µM)	4 (≈ 9.14 µM)	2 (≈ 4.57 µM)	MIC (Aspergillus tubingensis [21]): 2.67 µg/mL (≈ 6.1 µM); MIC (Aspergillus foetidus [22]): 2.67 µg/mL (≈ 6.1 µM); MIC (Aspergillus niger [23]): 1.5 µg/mL (≈ 3.43 µM); MIC (Aspergillus tubingensis [24]): 3.33 µg/mL (≈ 7.61 µM); MIC (Aspergillus tubingensis [25]): 2.5 µg/mL (≈ 5.71 µM); MIC (Aspergillus tubingensis [26]): 2 µg/mL (≈ 4.57 µM); MIC (Aspergillus niger [27]): 2 µg/mL (≈ 4.57 µM); MIC (Aspergillus niger [28]): 2 µg/mL (≈ 4.57 µM); MIC (Aspergillus tubingensis [29]): 2 µg/mL (≈ 4.57 µM); MIC (Aspergillus tubingensis [30]): 1.67 µg/mL (≈ 3.82 µM); MIC (Aspergillus niger [31]): 1 µg/mL (≈ 2.29 µM); MIC (Aspergillus tubingensis [32]): 2.5 µg/mL (≈ 5.71 µM); MIC (Aspergillus niger [33]): 1 µg/mL (≈ 2.29 µM); MIC (Aspergillus niger [34]): 0.58 µg/mL (≈ 1.33 µM)
